Test results published in patent US20150320773A1, “TREATMENT OF INFLAMMATION” (Vascular Biogenics Ltd., priority 2011, published 2015).
Like-named read-outs stand apart in the source and are kept apart here.

Experiments:
IL-1 receptor (IL-1R) = IL-1 receptor (IL-1R) (Mus musculus, UniProt P13504); details: mouse BMDCs; 1.7, 8.5 or 17 μM
TLR2 = TLR2 (Homo sapiens, UniProt O60603); details: 1 μM SAA, 5 μg/ml VB-201
RAW 264.7 macrophages = details: 0, 8.5 or 17 μM VB-201; streptavidin-APC
From the text: Cells were washed and LPS binding was detected using streptavidin-APC.
CD14 is known to bind to lipopolysaccharide (LPS).

human monocytes = assay: ROS formation in human monocytes (DCF, FACS); type: cell-based; details: overnight; VB-201 10 μg/ml, PGPC 10 μg/ml, OxPAPC 100 μg/ml; relative to PBS
Procedure: Detection of ROS was performed through FACS quantification of the oxidation product dichlorodihydrofluorescein (DCF). Data are mean±SD from 3-4 experiments performed in duplicates. FIG. 23B is a histogram from a representative experiment showing DCF levels in treated cells.

chemokine receptors = assay: GPCR activation assay, agonist mode (calcium flux); type: cell-based; details: 12.5 μM VB-201; ChemiScreen stable cell lines
CCR2B = CCR2B (Homo sapiens, UniProt P41597); details: escalating doses
CCR2B, sequence (P41597 1-360 isoform P41597-2): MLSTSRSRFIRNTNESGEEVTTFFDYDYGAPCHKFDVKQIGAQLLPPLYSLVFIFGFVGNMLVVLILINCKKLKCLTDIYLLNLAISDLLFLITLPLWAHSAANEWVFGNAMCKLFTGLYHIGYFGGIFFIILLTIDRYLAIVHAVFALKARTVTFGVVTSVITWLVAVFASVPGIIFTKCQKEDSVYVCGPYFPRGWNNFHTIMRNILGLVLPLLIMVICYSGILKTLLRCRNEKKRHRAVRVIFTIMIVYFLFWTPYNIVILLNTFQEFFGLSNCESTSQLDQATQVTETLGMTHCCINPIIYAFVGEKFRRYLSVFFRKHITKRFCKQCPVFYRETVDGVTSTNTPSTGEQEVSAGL
Procedure: (§1) Analyses were performed by Millipore GPCR Profiler Service, by measuring intracellular calcium signal in real time using FLIPR^TETRA device. […] Antagonist percentage inhibition was referenced to EC80 control wells for each tested GPCR.

CCR5 = CCR5 (Homo sapiens, UniProt P51681); details: escalating doses
CCR5, sequence (P51681 whole entry): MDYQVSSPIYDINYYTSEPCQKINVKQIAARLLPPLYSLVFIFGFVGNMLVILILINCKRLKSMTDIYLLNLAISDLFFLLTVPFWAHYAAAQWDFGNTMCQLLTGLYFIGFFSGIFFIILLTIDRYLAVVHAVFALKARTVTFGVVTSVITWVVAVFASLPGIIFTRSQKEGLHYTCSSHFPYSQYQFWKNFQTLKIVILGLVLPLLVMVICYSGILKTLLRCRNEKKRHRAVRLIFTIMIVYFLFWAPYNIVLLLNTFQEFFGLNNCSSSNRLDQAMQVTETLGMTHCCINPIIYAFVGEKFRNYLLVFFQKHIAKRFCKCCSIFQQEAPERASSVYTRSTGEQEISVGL
Procedure: as §1

[1] = system: Human monocyte-derived dendritic cells (DCs); assay: cAMP accumulation assay; type: cell-based; details: 4 hours; VB-201 1-5 μg/ml; oxidized PAPC escalating doses; forskolin positive control
Procedure: Cells were incubated for 4 hours at 37° C. in the presence of the phosphodiesterase inhibitors IBMX (Calbiochem; 0.5 mM) and RO-20-1724 (Biomol; 0.5 mM) to prevent cAMP degredation. For the quantification of [^3H]cAMP formation, the incubation was terminated by removal of the medium and addition of 2.5% perchloric acid containing 0.1 mM unlabeled cAMP (Sigma), followed by neutralization with 4.2 M KOH and 1.85 M K2CO3.

granulocytes = assay: Phagocytosis assay (whole blood), granulocytes; type: cell-based, human; details: VB-201 doses of 5 or 10 µg/ml
Procedure: Phagocytosis assays were conducted using pHrodo™ Phagocytosis Particle Labeling Kit (Invitrogen) according to the manufacturer protocol. […] Then, pHrodo dye-labeled E. coli bacteria were mixed with the treated blood samples, in 20:1 ratio of pHrodo™ particles to phagocytosing cells and incubated for additional 15 minutes. Each sample was analyzed both at 4° C. (no phagocytosis, negative control) and 37° C. Following incubation, red blood cells were removed by lysis and the samples were washed 3 times with wash buffer. For gating on specific subpopulations, cells were labeled with anti-CD14-FITC (monocytes and granulocytes marker, BD Biosciences) and anti-CD66b-PerCP/Cy5.5 (granulocytes marker, BioLegend) antibodies. pHrodo fluorescence intensity was analyzed by FACS.
To this end, a phagocytosis assay was performed on whole blood from healthy donors, and the capacity of leukocyte subsets to phagocytose PE-labeled E. Coli particles was tested in presence or absence of VB-201. As a negative control, we used blood without bacterial particles, while a positive control included blood and labeled-bacterial particles incubated at 37° C. Cells were then stained with CD14 and CD66b antibodies to differentiate between monocytes and granulocytes and were analyzed by FACS.

COX-1 = COX-1 (Homo sapiens, UniProt P23219); details: concentrations of up to 10 μM; data not shown
COX-1, sequence (P23219 24-599): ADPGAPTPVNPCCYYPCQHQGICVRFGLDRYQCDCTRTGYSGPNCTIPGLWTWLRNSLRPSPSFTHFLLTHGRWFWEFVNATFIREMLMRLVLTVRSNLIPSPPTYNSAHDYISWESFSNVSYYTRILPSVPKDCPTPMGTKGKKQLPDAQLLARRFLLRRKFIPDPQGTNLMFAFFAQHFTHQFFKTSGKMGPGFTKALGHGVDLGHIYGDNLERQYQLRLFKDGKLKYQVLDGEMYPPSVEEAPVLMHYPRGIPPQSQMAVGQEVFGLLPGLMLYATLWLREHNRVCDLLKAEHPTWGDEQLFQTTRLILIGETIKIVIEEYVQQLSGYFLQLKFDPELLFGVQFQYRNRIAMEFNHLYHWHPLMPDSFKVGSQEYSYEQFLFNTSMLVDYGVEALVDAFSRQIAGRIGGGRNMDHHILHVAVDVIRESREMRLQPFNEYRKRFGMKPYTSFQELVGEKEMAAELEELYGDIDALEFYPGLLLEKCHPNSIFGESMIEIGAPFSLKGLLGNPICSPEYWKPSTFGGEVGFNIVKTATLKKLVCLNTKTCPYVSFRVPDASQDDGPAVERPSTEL

COX-2 = COX-2 (Homo sapiens, UniProt P35354); details: concentrations of up to 10 μM; data not shown
COX-2, sequence (P35354 18-604): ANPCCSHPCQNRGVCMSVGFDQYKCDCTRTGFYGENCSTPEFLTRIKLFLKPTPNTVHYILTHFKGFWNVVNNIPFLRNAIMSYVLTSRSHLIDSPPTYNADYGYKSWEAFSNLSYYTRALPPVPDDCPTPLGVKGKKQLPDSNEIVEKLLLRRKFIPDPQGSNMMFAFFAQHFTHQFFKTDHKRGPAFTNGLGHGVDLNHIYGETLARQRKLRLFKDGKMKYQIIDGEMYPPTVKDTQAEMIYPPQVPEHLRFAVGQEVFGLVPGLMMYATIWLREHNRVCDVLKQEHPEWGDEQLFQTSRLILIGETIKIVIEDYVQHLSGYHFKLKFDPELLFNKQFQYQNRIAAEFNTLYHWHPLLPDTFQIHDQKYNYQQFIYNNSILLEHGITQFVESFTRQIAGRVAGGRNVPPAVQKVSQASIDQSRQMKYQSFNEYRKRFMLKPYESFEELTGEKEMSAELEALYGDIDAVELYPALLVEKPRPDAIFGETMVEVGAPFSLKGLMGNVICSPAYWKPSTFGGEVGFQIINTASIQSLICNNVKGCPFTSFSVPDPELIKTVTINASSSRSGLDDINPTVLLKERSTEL

HMG-CoA reductase = HMG-CoA reductase (Homo sapiens, UniProt P04035); details: concentrations of up to 10 μM; data not shown
HMG-CoA reductase, sequence (P04035 whole entry, species assumed): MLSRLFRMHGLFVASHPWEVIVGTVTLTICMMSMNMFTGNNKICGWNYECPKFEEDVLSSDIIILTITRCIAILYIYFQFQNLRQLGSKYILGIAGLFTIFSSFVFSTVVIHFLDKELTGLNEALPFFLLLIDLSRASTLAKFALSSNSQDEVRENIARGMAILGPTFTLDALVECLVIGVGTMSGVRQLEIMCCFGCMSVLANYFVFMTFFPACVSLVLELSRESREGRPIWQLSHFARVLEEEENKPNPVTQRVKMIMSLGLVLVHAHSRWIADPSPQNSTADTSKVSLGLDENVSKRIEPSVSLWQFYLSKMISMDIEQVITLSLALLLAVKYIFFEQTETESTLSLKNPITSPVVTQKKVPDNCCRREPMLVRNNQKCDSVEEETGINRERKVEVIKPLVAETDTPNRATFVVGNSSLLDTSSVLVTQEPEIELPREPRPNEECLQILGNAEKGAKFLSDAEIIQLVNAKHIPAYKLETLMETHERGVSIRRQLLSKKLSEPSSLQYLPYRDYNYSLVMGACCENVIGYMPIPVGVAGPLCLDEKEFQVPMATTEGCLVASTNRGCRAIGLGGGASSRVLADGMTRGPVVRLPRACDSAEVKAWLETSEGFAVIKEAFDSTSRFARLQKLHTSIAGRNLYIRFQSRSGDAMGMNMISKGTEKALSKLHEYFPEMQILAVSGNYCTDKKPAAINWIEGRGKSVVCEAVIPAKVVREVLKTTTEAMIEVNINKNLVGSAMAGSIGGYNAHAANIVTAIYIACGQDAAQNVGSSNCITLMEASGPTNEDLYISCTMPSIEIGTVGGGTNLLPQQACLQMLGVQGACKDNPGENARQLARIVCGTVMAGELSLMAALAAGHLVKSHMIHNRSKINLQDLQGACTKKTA

12-LO (12-lipoxygenase) = 12-LO (12-lipoxygenase) (Homo sapiens, UniProt P18054); details: concentrations of up to 10 μM; data not shown
12-LO (12-lipoxygenase), sequence (P18054 whole entry, species assumed): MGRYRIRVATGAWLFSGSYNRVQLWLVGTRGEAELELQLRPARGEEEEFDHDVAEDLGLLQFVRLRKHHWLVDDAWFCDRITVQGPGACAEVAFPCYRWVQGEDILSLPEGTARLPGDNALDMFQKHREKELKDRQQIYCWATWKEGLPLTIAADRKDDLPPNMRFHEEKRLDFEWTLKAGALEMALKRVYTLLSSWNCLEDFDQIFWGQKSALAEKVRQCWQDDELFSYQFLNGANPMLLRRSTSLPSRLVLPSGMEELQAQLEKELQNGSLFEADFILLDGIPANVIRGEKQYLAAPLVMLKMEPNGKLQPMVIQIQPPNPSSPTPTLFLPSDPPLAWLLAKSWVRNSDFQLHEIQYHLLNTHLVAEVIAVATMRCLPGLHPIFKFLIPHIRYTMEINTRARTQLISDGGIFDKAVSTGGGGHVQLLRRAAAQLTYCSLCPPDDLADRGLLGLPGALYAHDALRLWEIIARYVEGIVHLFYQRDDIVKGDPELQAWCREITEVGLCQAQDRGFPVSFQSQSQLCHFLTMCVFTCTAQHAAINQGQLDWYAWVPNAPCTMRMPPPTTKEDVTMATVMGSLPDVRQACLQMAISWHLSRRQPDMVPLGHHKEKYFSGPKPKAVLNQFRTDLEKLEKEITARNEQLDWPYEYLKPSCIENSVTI

TLR2, sequence (O60603 21-784): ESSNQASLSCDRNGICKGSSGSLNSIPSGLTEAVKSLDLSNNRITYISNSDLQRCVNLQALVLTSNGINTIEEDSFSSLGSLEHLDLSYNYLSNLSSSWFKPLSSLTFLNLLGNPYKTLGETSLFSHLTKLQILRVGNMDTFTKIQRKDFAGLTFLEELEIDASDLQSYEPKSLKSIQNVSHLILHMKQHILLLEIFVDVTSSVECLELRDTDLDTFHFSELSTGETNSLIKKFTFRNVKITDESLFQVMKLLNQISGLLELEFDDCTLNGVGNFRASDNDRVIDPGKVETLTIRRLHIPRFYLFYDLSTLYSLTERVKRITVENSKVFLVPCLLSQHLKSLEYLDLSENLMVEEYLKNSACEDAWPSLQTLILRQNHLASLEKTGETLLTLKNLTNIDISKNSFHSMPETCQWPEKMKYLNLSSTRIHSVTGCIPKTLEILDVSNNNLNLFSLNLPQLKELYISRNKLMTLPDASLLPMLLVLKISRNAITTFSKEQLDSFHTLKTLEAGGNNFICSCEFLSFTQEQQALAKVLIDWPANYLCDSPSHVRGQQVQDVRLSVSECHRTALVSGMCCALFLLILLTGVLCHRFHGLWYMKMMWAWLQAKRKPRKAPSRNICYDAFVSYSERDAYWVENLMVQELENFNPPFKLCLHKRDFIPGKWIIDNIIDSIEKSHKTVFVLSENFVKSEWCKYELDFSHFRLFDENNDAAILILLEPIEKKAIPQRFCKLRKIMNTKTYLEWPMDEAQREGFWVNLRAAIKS
IL-1 receptor (IL-1R), sequence (P13504 20-576): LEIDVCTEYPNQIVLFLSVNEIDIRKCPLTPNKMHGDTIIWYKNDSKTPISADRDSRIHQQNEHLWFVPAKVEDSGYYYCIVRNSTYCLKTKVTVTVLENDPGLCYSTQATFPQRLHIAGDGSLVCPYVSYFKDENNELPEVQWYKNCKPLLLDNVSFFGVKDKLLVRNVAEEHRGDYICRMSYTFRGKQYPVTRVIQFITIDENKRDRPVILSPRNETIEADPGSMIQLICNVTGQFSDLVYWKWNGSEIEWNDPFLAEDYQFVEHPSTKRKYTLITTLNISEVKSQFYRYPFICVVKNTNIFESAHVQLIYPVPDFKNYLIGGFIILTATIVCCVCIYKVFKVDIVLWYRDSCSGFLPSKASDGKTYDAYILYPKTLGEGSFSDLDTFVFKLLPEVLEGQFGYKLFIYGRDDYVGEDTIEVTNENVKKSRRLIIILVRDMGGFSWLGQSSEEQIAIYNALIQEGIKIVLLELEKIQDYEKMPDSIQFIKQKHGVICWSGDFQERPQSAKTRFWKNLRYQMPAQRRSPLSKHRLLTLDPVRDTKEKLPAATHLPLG

CCCCCCCCCCCCCCCCOC[C@H](COP(=O)([O-])OCC[N+](C)(C)C)OCCCCC(=O)O [VB-201, (R)-1-hexadecyl-2-(4′-carboxyl)butyl-sn-glycero-3-phosphocholine]
p38 phosphorylation following activation of IL-1 receptor (IL-1 receptor (IL-1R)): no apparent effect
activation of p38, ERK1/2 and the NFκB pathway following activation of TLR2 by serum amyloid A (TLR2; THP-1 cells): inhibited activation of p38, ERK1/2 and the NFκB pathway
activation of p38, ERK1/2 and the NFκB pathway following activation of TLR2 by serum amyloid A (TLR2; human CD14+ cells): inhibited activation of p38, ERK1/2 and the NFκB pathway
binding of biotinylated LPS to macrophages (RAW 264.7 macrophages): inhibited binding of biotinylated LPS to macrophages in a dose dependent manner
ROS formation in human monocytes (human monocytes): no effect on ROS formation
activation relative to positive controls (agonist, Ca++ flux) (chemokine receptors): less than 5%
antagonistic effect against CCR2B (CCR2B): did not induce an antagonistic effect
antagonistic effect against CCR5 (CCR5): did not induce an antagonistic effect
intracellular cAMP levels [1]: not affected
granulocyte phagocytosis (granulocytes): no VB-201 effect was seen
inhibition of COX-1 (COX-1): No inhibition
inhibition of COX-2 (COX-2): No inhibition
inhibition of HMG-CoA reductase (HMG-CoA reductase): No inhibition
inhibition of 12-LO (12-lipoxygenase) (12-LO (12-lipoxygenase)): No inhibition
